Measured values reported in patent US7118895B2, “Process for producing aglycon by using diglycosidase and flavor-improved food containing the aglycon and converting agent to be used in the process” (Amano Enzyme Inc., priority 2000, dated 2006).

Tested on: Crude diglycosidase
Assay: Examination of temperature in the conversion into isoflavone aglycons by diglycosidase using soybean materials
Type: biochemical, Penicillium multicolor IAM7153
Design: Decomposition efficiency of glycitin family in roasted soy flour / Decomposition efficiency of daidzin family in roasted soy flour / Decomposition efficiency of genistin family in soymilk / Decomposition efficiency of daidzin family in soymilk / Decomposition efficiency of glycitin family in defatted soybean / Decomposition efficiency of daidzin family in defatted soybean: concentration or dose not given beside the values
Method in brief: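 Soybean materials (50 mg) suspended in 20 mM acetate buffer pH 4.0 reacted with crude diglycosidase diluted to 1.88 AU/mL at 80, 65, 55, 45, 37 or 30° C. Reactions stopped with ethanol at 0, 1, 3 and 6 h; isoflavone glycosides and aglycons in supernatant detected by HPLC.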

[1] = 30° C., heat treatment of enzyme no, reaction time 0 h
[2] = 30° C., heat treatment of enzyme no, reaction time 1 h
[3] = 30° C., heat treatment of enzyme no, reaction time 3 h
[4] = 30° C., heat treatment of enzyme no, reaction time 6 h
[5] = 30° C., heat treatment of enzyme yes, reaction time 6 h
[6] = 30 °C, heat treatment of enzyme: no, 0 h
[7] = 30 °C, heat treatment of enzyme: no, 1 h
[8] = 30 °C, heat treatment of enzyme: no, 3 h
[9] = 30 °C, heat treatment of enzyme: no, 6 h
[10] = 30 °C, heat treatment of enzyme: yes, 6 h
[11] = 45° C., heat treatment of enzyme no, reaction time 0 h
[12] = 45° C., heat treatment of enzyme no, reaction time 1 h
[13] = 45° C., heat treatment of enzyme no, reaction time 3 h
[14] = 45° C., heat treatment of enzyme no, reaction time 6 h
[15] = 45° C., heat treatment of enzyme yes, reaction time 6 h
[16] = 45 °C, heat treatment of enzyme: no, 0 h
[17] = 45 °C, heat treatment of enzyme: no, 1 h
[18] = 45 °C, heat treatment of enzyme: no, 3 h
[19] = 45 °C, heat treatment of enzyme: no, 6 h
[20] = 45 °C, heat treatment of enzyme: yes, 6 h
[21] = 55° C., heat treatment of enzyme no, reaction time 0 h
[22] = 55° C., heat treatment of enzyme no, reaction time 1 h
[23] = 55° C., heat treatment of enzyme no, reaction time 3 h
[24] = 55° C., heat treatment of enzyme no, reaction time 6 h
[25] = 55° C., heat treatment of enzyme yes, reaction time 6 h
[26] = 55 °C, heat treatment of enzyme: no, 0 h
[27] = 55 °C, heat treatment of enzyme: no, 1 h
[28] = 55 °C, heat treatment of enzyme: no, 3 h
[29] = 55 °C, heat treatment of enzyme: no, 6 h
[30] = 55 °C, heat treatment of enzyme: yes, 6 h
[31] = 65° C., heat treatment of enzyme no, reaction time 0 h
[32] = 65° C., heat treatment of enzyme no, reaction time 1 h
[33] = 65° C., heat treatment of enzyme no, reaction time 3 h
[34] = 65° C., heat treatment of enzyme no, reaction time 6 h
[35] = 65° C., heat treatment of enzyme yes, reaction time 6 h
[36] = 65 °C, heat treatment of enzyme: no, 0 h
[37] = 65 °C, heat treatment of enzyme: no, 1 h
[38] = 65 °C, heat treatment of enzyme: no, 3 h
[39] = 65 °C, heat treatment of enzyme: no, 6 h
[40] = 65 °C, heat treatment of enzyme: yes, 6 h
[41] = 80° C., heat treatment of enzyme no, reaction time 0 h
[42] = 80° C., heat treatment of enzyme no, reaction time 1 h
[43] = 80° C., heat treatment of enzyme no, reaction time 3 h
[44] = 80° C., heat treatment of enzyme no, reaction time 6 h
[45] = 80° C., heat treatment of enzyme yes, reaction time 6 h
[46] = 80 °C, heat treatment of enzyme: no, 0 h
[47] = 80 °C, heat treatment of enzyme: no, 1 h
[48] = 80 °C, heat treatment of enzyme: no, 3 h
[49] = 80 °C, heat treatment of enzyme: no, 6 h
[50] = 80 °C, heat treatment of enzyme: yes, 6 h

Decomposition efficiency of genistin family in concentrated soybean protein [1]: not detected | Decomposition efficiency of genistin family in defatted soybean [1]: 47.0% | Decomposition efficiency of genistin family in concentrated soybean protein [2]: not detected | Decomposition efficiency of genistin family in defatted soybean [2]: 51.3% | Decomposition efficiency of genistin family in concentrated soybean protein [3]: not detected | Decomposition efficiency of genistin family in defatted soybean [3]: 49.1% | Decomposition efficiency of genistin family in concentrated soybean protein [4]: not detected | Decomposition efficiency of genistin family in defatted soybean [4]: 45.6% | Decomposition efficiency of genistin family in concentrated soybean protein [5]: not detected | Decomposition efficiency of genistin family in defatted soybean [5]: 49.5% | Decomposition efficiency of genistin family in roasted soy flour [6]: not detected | Decomposition efficiency of genistin family in soymilk [6]: 58.5% | Decomposition efficiency of genistin family in roasted soy flour [7]: not detected | Decomposition efficiency of genistin family in soymilk [7]: 56.5% | Decomposition efficiency of genistin family in roasted soy flour [8]: not detected | Decomposition efficiency of genistin family in soymilk [8]: 47.9% | Decomposition efficiency of genistin family in roasted soy flour [9]: not detected | Decomposition efficiency of genistin family in soymilk [9]: 36.1% | Decomposition efficiency of genistin family in roasted soy flour [10]: not detected | Decomposition efficiency of genistin family in soymilk [10]: 57.7% | Decomposition efficiency of genistin family in concentrated soybean protein [11]: not detected | Decomposition efficiency of genistin family in defatted soybean [11]: 47.0% | Decomposition efficiency of genistin family in concentrated soybean protein [12]: not detected | Decomposition efficiency of genistin family in defatted soybean [12]: 49.0% | Decomposition efficiency of genistin family in concentrated soybean protein [13]: not detected | Decomposition efficiency of genistin family in defatted soybean [13]: 46.8% | Decomposition efficiency of genistin family in concentrated soybean protein [14]: not detected | Decomposition efficiency of genistin family in defatted soybean [14]: 44.2% | Decomposition efficiency of genistin family in concentrated soybean protein [15]: not detected | Decomposition efficiency of genistin family in defatted soybean [15]: 48.1% | Decomposition efficiency of genistin family in roasted soy flour [16]: not detected | Decomposition efficiency of genistin family in soymilk [16]: 57.8% | Decomposition efficiency of genistin family in roasted soy flour [17]: not detected | Decomposition efficiency of genistin family in soymilk [17]: 49.4% | Decomposition efficiency of genistin family in roasted soy flour [18]: not detected | Decomposition efficiency of genistin family in soymilk [18]: 34.7% | Decomposition efficiency of genistin family in roasted soy flour [19]: not detected | Decomposition efficiency of genistin family in soymilk [19]: 20.7% | Decomposition efficiency of genistin family in roasted soy flour [20]: not detected | Decomposition efficiency of genistin family in soymilk [20]: 57.2% | Decomposition efficiency of genistin family in concentrated soybean protein [21]: not detected | Decomposition efficiency of genistin family in defatted soybean [21]: 47.0% | Decomposition efficiency of genistin family in concentrated soybean protein [22]: not detected | Decomposition efficiency of genistin family in defatted soybean [22]: 48.8% | Decomposition efficiency of genistin family in concentrated soybean protein [23]: not detected | Decomposition efficiency of genistin family in defatted soybean [23]: 46.1% | Decomposition efficiency of genistin family in concentrated soybean protein [24]: not detected | Decomposition efficiency of genistin family in defatted soybean [24]: 43.4% | Decomposition efficiency of genistin family in concentrated soybean protein [25]: not detected | Decomposition efficiency of genistin family in defatted soybean [25]: 47.8% | Decomposition efficiency of genistin family in roasted soy flour [26]: not detected | Decomposition efficiency of genistin family in soymilk [26]: 59.1% | Decomposition efficiency of genistin family in roasted soy flour [27]: not detected | Decomposition efficiency of genistin family in soymilk [27]: 46.9% | Decomposition efficiency of genistin family in roasted soy flour [28]: not detected | Decomposition efficiency of genistin family in soymilk [28]: 32.5% | Decomposition efficiency of genistin family in roasted soy flour [29]: not detected | Decomposition efficiency of genistin family in soymilk [29]: 20.4% | Decomposition efficiency of genistin family in roasted soy flour [30]: not detected | Decomposition efficiency of genistin family in soymilk [30]: 53.3% | Decomposition efficiency of genistin family in concentrated soybean protein [31]: not detected | Decomposition efficiency of genistin family in defatted soybean [31]: 47.0% | Decomposition efficiency of genistin family in concentrated soybean protein [32]: not detected | Decomposition efficiency of genistin family in defatted soybean [32]: 48.9% | Decomposition efficiency of genistin family in concentrated soybean protein [33]: not detected | Decomposition efficiency of genistin family in defatted soybean [33]: 45.2% | Decomposition efficiency of genistin family in concentrated soybean protein [34]: not detected | Decomposition efficiency of genistin family in defatted soybean [34]: 41.1% | Decomposition efficiency of genistin family in concentrated soybean protein [35]: not detected | Decomposition efficiency of genistin family in defatted soybean [35]: 39.7% | Decomposition efficiency of genistin family in roasted soy flour [36]: not detected | Decomposition efficiency of genistin family in soymilk [36]: 58.5% | Decomposition efficiency of genistin family in roasted soy flour [37]: not detected | Decomposition efficiency of genistin family in soymilk [37]: 48.9% | Decomposition efficiency of genistin family in roasted soy flour [38]: not detected | Decomposition efficiency of genistin family in soymilk [38]: 40.6% | Decomposition efficiency of genistin family in roasted soy flour [39]: not detected | Decomposition efficiency of genistin family in soymilk [39]: 31.8% | Decomposition efficiency of genistin family in roasted soy flour [40]: not detected | Decomposition efficiency of genistin family in soymilk [40]: 44.6% | Decomposition efficiency of genistin family in concentrated soybean protein [41]: not detected | Decomposition efficiency of genistin family in defatted soybean [41]: 47.0% | Decomposition efficiency of genistin family in concentrated soybean protein [42]: not detected | Decomposition efficiency of genistin family in defatted soybean [42]: 43.8% | Decomposition efficiency of genistin family in concentrated soybean protein [43]: not detected | Decomposition efficiency of genistin family in defatted soybean [43]: 32.5% | Decomposition efficiency of genistin family in concentrated soybean protein [44]: not detected | Decomposition efficiency of genistin family in defatted soybean [44]: 20.9% | Decomposition efficiency of genistin family in concentrated soybean protein [45]: not detected | Decomposition efficiency of genistin family in defatted soybean [45]: 20.1% | Decomposition efficiency of genistin family in roasted soy flour [46]: not detected | Decomposition efficiency of genistin family in soymilk [46]: 57.8% | Decomposition efficiency of genistin family in roasted soy flour [47]: not detected | Decomposition efficiency of genistin family in soymilk [47]: 50.4% | Decomposition efficiency of genistin family in roasted soy flour [48]: not detected | Decomposition efficiency of genistin family in soymilk [48]: 37.7% | Decomposition efficiency of genistin family in roasted soy flour [49]: not detected | Decomposition efficiency of genistin family in soymilk [49]: 24.1% | Decomposition efficiency of genistin family in roasted soy flour [50]: not detected | Decomposition efficiency of genistin family in soymilk [50]: 22.9%
Structure (SMILES): O=C(O)CC(=O)OC[C@H]1O[C@@H](Oc2cc(O)c3c(=O)c(-c4ccc(O)cc4)coc3c2)[C@H](O)[C@@H](O)[C@@H]1O [malonylgenistin, 6″-O-malonylgenistin]
